# Patent US8557818B2, “Compounds useful as protein kinase inhibitors” (Vertex Phamaceuticals Incorporated, priority 2006, dated 2013)
# Biological target: PLK1 (Homo sapiens, UniProt P53350)
# Test: PLK1 Inhibition Assay 1 (radioactive-phosphate incorporation assay)
# Format: biochemical
# Details: Ki(app), [γ-33P]ATP 350 μM, peptide 450 μM, 1 nM PLK1 for values of <1 nM
# Method: Compounds of the present invention are evaluated as inhibitors of human PLK using the following assays.
# Compounds were screened for their ability to inhibit PLK1 using a radioactive-phosphate incorporation assay. Assays were carried out in a mixture of 25 mM HEPES (pH 7.5), 10 mM MgCl2, 0.1% BSA, and 2 mM DTT. Final substrate concentrations were 150 μM (350 μM for determining values of <1 nM) [γ-33P]ATP (115 mCi 33P ATP/mmol ATP, Amersham Pharmacia Biotech/Sigma Chemicals) and 300 μM (450 μM for determining values of <1 nM) peptide (KKKISDELMDATFADQEAK)[SEQ ID:1]. Assays were carried out at 25° C. in the presence of 4 nM (1 nM for determining values of <1 nM) PLK1. An assay stock buffer solution was prepared containing all of the reagents listed above, with the exception of ATP and the test compound of interest. 30 μL of the stock solution was placed in a 96 well plate followed by addition of 2 μL of DMSO stock containing serial dilutions of the test compound (typically starting from a final concentration of 10 μM with 2-fold serial dilutions) in duplicate (final DMSO concentration 5%). The plate was pre-incubated for 10 minutes at 25° C. and the reaction initiated by addition of 8 μL [γ-33P]ATP (final concentration 150 μM (350 μM for determining values of <1 nM))).
# The reaction was stopped after 90 minutes (240 minutes for determining values of <1 nM) by the addition of 100 μL 0.14M phosphoric acid. A multiscreen phosphocellulose filter 96-well plate (Millipore, Cat no. MAPHN0B50) was pretreated with 100 μL 0.2M phosphoric acid prior to the addition of 125 μL of the stopped assay mixture. The plate was washed with 4×200 μL 0.2M phosphoric acid. […]
# After removing mean background values for all of the data points, Ki(app) data were calculated from non-linear regression analysis of the initial rate data using the Prism software package (GraphPad Prism version 3.0cx for Macintosh, GraphPad Software, San Diego Calif., USA).
# Chain of PLK1 (P53350 whole entry): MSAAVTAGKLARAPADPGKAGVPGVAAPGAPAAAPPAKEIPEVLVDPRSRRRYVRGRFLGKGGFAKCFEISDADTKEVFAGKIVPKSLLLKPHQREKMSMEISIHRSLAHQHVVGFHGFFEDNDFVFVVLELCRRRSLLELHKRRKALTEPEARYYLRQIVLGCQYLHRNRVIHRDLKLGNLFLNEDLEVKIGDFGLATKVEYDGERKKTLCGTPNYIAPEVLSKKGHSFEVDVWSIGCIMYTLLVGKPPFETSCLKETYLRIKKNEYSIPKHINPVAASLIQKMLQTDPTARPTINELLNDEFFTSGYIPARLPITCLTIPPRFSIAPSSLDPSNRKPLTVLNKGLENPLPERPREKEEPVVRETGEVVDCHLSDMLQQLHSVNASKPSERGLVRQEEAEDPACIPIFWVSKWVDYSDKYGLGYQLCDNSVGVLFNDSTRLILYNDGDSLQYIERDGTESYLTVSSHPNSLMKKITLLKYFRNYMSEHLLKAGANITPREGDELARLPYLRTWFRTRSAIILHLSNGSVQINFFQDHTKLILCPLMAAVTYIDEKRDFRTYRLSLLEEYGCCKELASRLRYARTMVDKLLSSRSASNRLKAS
row,Ki [nM],Compound
1,< 1,"CC[C@@H]1c2c(C(=O)O)ncn2-c2cnc(Nc3ccc(C(=O)NC)cc3OC)nc2N1C1CCCC1 [Compound I-2, (R)-3-(4-(methylcarbamoyl)-2-methoxyphenylamino)-5-cyclopentyl-6-ethyl-5,6-dihydroimidazo[1,5-f]pteridine-7-carboxylic acid]"
2,< 1,"CC[C@@H]1c2cncn2-c2cnc(Nc3ccc(C(=O)NC)cc3OC)nc2N1C1CCCC1 [Compound I-4, (R)-4-(5-cyclopentyl-6-ethyl-5,6-dihydroimidazo[1,5-f]pteridin-3-ylamino)-3-methoxy-N-methylbenzamide]"
3,< 1,"CC[C@@H]1c2cncn2-c2cnc(Nc3ccc(C(=O)NC4CC4)cc3OC)nc2N1C1CCCC1 [Compound I-6, (R)-4-(5-cyclopentyl-6-ethyl-5,6-dihydroimidazo[1,5-f]pteridin-3-ylamino)-N-cyclopropyl-3-methoxybenzamide]"
